Test results as given in patent publication US20130202685A1, “Use of a histamine H4 antagonist for the treatment of post-operative adhesions” (Janssen Pharmaceutica NV, priority 2008, published 2013).
“And” between values parts separate entries of the source, which are not always exact repeats. Identical values can stand only once.

Key:
[1] = system: adhesion formation at the site of sidewall injury; assay: Peritoneal sidewall adhesion model (rabbit); format: in vivo; conditions: for Adhesion Area / Adhesion Tenacity: individual animals; for Adhesion Area Mean/SEM: group mean; for Adhesion Tenacity Mean/SEM (mean of the rank of the tenacity): group mean rank; for Adhesion Tenacity: score 0-3
Method: Multiple studies to confirm the efficacy of histamine H4 receptor antagonists in the reduction or inhibition of adhesion formation after peritoneal surgery were performed using a sidewall adhesion model.
Animals: Twenty eight female New Zealand White rabbits, 2.4-2.7 kg, were purchased from Irish Farms and quarantined for at least 2 days prior to use. The rabbits were housed on a 12:12 light:dark cycle with food and water available ad libitum.
Rabbits were anesthetized with a mixture of 55 mg/kg ketamine hydrochloride and 5 mg/kg Rompum intramuscularly. Following preparation for sterile surgery, a midline laparotomy was performed. A polyethylene catheter (Clay Adams polyethylene tubing PE-60 ID 0.76 mm (0.030″) OD 1.22 mm (0.048″)) was introduced into the peritoneal cavity and sutured to the sidewall with 5-0 Ethilon. For local administration, an Alzet miniosmotic pump (10 μl/hour, 2 ml, Model 2ML1 from Durect), filled with one dosage level or placebo (water for injection) control at 10 μl/hour over 7 days starting with the day of surgery was placed in the subcutaneous space. The catheter was then attached to the pump and the midline muscle incision was closed around the catheter. The cecum and bowel were exteriorized and digital pressure was exerted to create subserosal hemorrhages over all surfaces. The damaged intestine was then lightly abraded with 4″×4″ 4-ply sterile gauze until punctate bleeding was observed. The cecum and bowel was then returned to their normal anatomic position. A 5×3 cm area of peritoneum and transversus abdominous muscle was removed on the right lateral abdominal wall. The incision was closed in two layers with 3-0 Vicryl (Ethicon, Somerville, N.J.). The pump was replaced at day 7.
Twenty-one days after surgery, rabbits were sacrificed by intravenous EuthaSol. Adhesion formation at the site of sidewall injury was assessed by examination to determine the percentage of the area of the sidewall injury involved in adhesions. The percentage of a surface of the sidewall involved in adhesions to various organs are given in the tables below to quantify the overall adhesion score. In addition, tenacity of the adhesion formed was scored using a system as follows:
1=mild, easily dissectible adhesions;
3=dense adhesions; non-dissectible, tears when removed.
The difference in adhesion formation between the control and treated groups were analyzed by Student's t-test. A reduction in the area and the tenacity of the adhesions would be considered beneficial and efficacious.
General observations were conducted on each animal (appearance, behavior, clinical signs, symptoms, moribundity, mortality, and physical examinations) prior to assignment to study and on the day of necropsy. On the day of necropsy data and observations were recorded with particular attention to inflammation, granulomatous material and adhesion formation at the treatment site. All biocompatibility results were recorded, and the level of reaction was noted (none, mild, moderate, severe).

[2] = system: adhesion formation at the site of sidewall injury; assay: Peritoneal sidewall adhesion model (rabbit); format: in vivo; conditions: individual animals
[3] = 5 mg/ml, non-systemic by Alzet pump, 21 days after surgery
[4] = 5 mg/ml, non-systemic by pump, result in words

## CN1CCN(C(=O)c2c[nH]c3ccc(Cl)cc23)CC1 [(5-Chloro-1H-indol-3-yl)-(4-methyl-piperazin-1-yl)-methanone]
[1]; 5 mg/ml, non-systemic by Alzet pump 10 μl/hour, 21 days after surgery
  Adhesion Area: 60 percentage and 70 percentage and 40 percentage and 80 percentage and 50 percentage and 100 percentage (2×)
[1]; [3]
  Adhesion Area Mean/SEM: 71.4 ± 8.8 percentage
  Adhesion Tenacity Mean/SEM (mean of the rank of the tenacity): 6.93 ± 1.4
  Adhesion Tenacity: 1 (6×) and 2
[1]; 5 mg/ml, non-systemic by pump, general observations
  clinical signs: No other rabbits showed any clinical signs
[1]; 5 mg/ml, non-systemic by pump, necropsy observation
  inflammatory or granulomatous reactions in the peritoneal cavity: no inflammatory or granulomatous reactions
[1]; [4]
  area of adhesions versus control: significantly reduced
  tenacity of adhesions versus control: significantly reduced

## Cc1cc(C)c2nc(-c3cnc(NCCCC4CCN(C)CC4)nc3C)[nH]c2c1 [Test Compound, [5-(4,6-dimethyl-1H-benzoimidazol-2-yl)-4-methyl-pyrimidin-2-yl]-[3-(1-methyl-piperidin-4-yl)-propyl]-amine]
[1]; 0.1 mg/ml, non-systemic (pump), 21 days after surgery
  Adhesion Area: 80 percentage (2×) and 100 percentage (3×) and 70 percentage (2×)
[1]; 0.1 mg/ml, non-systemic (pump)
  Adhesion Area Mean/SEM: 85.7 ± 5.28 percentage
  Adhesion Tenacity Mean/SEM (mean of the rank of the tenacity): 20.1 ± 3.37
  Adhesion Tenacity: 2 (5×) and 3 and 1
[1]; 1 mg/ml, non-systemic (pump), 21 days after surgery
  Adhesion Area: 80 percentage (3×) and 70 percentage and 60 percentage (3×)
[1]; 1 mg/ml, non-systemic (pump)
  Adhesion Area Mean/SEM: 70 ± 10 percentage
  Adhesion Tenacity Mean/SEM (mean of the rank of the tenacity): 13.9 ± 3.38
  Adhesion Tenacity: 2 (4×) and 1 (3×)
[1]; 10 mg/ml, non-systemic (pump), 21 days after surgery
  Adhesion Area: 100 percentage (2×) and 60 percentage (2×) and 80 percentage (2×) and 90 percentage
[1]; 10 mg/ml, non-systemic (pump)
  Adhesion Area Mean/SEM: 81.4 ± 6.34 percentage
  Adhesion Tenacity Mean/SEM (mean of the rank of the tenacity): 18.3 ± 1.43
  Adhesion Tenacity: 2 (6×) and 1
[1]; 30 mg/kg orally
  Adhesion Area Mean/SEM: 78.6 ± 8.85 percentage
  Adhesion Tenacity Mean/SEM (mean of the rank of the tenacity): 17.6 ± 5.27
[1]; mid-dose (1 mg/ml) administered by pump, not statistically significant, result in words
  tenacity of adhesions: appeared reduced
[1]; mid-dose (1 mg/ml) administered by pump, result in words
  area of adhesion reduction: statistically significant
[2]; 30 mg/kg orally (gavage on day of surgery and four additional days), 21 days after surgery
  Adhesion Area: 100 percentage (3×) and 40 percentage and 70 percentage and 80 percentage and 60 percentage
[2]; 30 mg/kg orally, score 0-3
  Adhesion Tenacity: 3 (2×) and 1 (3×) and 2 (2×)
